Laboratory results taken from ChEMBL document CHEMBL5465560, “Selectivity Literature for EUbOPEN Chemogenomic Library” (2024).

Columns and labels:
[1] = target: Macrophage colony-stimulating factor 1 receptor (Homo sapiens) (UniProt P07333); assay: Selectivity interaction (KinomeScan (DiscoverX)) EUB0001049a CSF1R; settings: at 1 µM
[2] = target: T1, Calcium/calmodulin-dependent protein kinase type IV (Homo sapiens) (UniProt Q16566); assay: Selectivity interaction (KinomeScan (DiscoverX)) EUB0001079a CAMK4; settings: at 1 µM
T1 sequence (whole entry): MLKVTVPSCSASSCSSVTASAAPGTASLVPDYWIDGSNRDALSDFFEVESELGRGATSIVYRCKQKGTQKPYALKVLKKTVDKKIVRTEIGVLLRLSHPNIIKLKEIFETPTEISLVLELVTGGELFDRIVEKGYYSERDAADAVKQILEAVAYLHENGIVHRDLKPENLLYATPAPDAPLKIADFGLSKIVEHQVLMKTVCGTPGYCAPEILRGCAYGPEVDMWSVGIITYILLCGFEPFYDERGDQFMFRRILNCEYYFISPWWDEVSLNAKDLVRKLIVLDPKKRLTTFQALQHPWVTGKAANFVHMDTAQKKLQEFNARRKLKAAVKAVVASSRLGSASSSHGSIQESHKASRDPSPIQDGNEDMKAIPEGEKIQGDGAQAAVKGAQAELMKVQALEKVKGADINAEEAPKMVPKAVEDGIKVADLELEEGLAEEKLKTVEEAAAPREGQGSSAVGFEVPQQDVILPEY

[3] = target: T2, Ribosomal protein S6 kinase delta-1 (Homo sapiens) (UniProt Q96S38); assay: Selectivity interaction (Kinase panel (KiNativ target engagement assay in Jurkat cells)) EUB0001635a RPS6KC1; assay type: cell-based; settings: Selectivity number of off-targets 0.0, Selectivity number of targets 233.0, Source Knowledge https://www.sciencedirect.com/science/article/pii/S2451945619300674?via%3Dihub, at 1 µM
T2 sequence (whole entry): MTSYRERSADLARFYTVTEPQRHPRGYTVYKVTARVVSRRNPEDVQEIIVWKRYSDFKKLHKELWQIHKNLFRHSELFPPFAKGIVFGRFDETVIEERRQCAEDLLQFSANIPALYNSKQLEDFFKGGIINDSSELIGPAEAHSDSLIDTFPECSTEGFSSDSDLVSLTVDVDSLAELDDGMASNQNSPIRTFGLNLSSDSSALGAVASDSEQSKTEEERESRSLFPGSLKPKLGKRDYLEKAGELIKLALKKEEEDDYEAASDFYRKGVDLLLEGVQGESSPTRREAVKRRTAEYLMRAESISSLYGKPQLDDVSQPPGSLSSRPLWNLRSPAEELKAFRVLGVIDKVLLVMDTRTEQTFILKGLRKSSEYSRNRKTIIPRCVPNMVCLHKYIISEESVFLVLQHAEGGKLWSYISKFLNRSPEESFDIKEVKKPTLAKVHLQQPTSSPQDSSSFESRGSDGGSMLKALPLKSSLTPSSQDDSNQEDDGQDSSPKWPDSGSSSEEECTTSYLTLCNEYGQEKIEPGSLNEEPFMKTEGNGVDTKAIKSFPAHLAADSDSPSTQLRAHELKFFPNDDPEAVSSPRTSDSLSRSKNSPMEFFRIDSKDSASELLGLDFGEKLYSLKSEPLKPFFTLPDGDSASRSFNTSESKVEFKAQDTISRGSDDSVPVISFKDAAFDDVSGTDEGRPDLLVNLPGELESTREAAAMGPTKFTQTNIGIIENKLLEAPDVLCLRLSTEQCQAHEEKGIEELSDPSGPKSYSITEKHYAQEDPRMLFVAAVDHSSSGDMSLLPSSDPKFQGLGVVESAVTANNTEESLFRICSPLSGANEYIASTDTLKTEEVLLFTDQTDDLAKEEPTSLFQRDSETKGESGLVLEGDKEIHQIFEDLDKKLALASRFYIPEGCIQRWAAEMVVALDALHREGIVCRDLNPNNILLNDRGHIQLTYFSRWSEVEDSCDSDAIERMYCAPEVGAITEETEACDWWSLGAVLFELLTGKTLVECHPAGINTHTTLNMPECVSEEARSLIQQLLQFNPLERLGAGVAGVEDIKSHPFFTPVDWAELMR

[4] = target: Delta-type opioid receptor (Homo sapiens, UniProt P41143); assay: Selectivity interaction (Opiate Delta receptor assay, human recombinant ) EUB0000877a OPRD1
Chain of Delta-type opioid receptor (P41143 whole entry): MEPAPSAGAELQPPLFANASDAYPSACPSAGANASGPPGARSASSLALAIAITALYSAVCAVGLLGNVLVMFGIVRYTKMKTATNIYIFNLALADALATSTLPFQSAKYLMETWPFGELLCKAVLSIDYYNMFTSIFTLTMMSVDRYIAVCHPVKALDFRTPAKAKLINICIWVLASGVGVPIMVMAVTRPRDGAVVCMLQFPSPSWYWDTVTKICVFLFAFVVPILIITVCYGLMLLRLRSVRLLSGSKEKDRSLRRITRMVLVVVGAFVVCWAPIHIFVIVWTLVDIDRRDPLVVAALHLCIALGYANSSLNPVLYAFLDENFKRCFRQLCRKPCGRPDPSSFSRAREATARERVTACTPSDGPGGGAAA

Glucocorticoid receptor = Glucocorticoid receptor (Homo sapiens, UniProt P04150); assay: Selectivity interaction (Glucocorticoid receptor binding assay, human recombinant ) EUB0000877a NR3C1
Chain of Glucocorticoid receptor (P04150 whole entry): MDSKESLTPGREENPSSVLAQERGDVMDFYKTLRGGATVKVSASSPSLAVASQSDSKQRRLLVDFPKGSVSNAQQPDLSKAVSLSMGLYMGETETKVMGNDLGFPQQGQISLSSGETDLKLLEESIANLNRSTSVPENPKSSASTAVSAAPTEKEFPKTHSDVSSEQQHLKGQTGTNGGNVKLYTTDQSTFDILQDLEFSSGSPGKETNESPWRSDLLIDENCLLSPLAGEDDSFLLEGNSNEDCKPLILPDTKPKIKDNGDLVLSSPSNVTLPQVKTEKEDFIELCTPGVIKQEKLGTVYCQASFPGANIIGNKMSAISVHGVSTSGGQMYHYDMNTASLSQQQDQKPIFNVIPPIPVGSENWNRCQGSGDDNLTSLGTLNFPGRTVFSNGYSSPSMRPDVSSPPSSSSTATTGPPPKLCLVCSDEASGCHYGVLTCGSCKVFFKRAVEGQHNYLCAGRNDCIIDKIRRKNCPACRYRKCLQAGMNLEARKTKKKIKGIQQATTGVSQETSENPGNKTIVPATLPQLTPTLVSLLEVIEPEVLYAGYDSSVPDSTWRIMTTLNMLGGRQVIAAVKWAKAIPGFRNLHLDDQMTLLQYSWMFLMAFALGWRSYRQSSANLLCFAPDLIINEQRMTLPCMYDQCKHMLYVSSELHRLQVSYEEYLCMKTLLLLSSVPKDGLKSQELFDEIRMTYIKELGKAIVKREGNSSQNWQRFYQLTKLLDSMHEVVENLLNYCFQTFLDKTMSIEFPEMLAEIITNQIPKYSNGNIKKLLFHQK

SRSF protein kinase 1 = SRSF protein kinase 1 (Homo sapiens, UniProt Q96SB4); assay: Selectivity interaction (KinomeScan (DiscoverX)) EUB0000092b SRPK1; settings: at 10 µM
Chain of SRSF protein kinase 1 (Q96SB4 whole entry): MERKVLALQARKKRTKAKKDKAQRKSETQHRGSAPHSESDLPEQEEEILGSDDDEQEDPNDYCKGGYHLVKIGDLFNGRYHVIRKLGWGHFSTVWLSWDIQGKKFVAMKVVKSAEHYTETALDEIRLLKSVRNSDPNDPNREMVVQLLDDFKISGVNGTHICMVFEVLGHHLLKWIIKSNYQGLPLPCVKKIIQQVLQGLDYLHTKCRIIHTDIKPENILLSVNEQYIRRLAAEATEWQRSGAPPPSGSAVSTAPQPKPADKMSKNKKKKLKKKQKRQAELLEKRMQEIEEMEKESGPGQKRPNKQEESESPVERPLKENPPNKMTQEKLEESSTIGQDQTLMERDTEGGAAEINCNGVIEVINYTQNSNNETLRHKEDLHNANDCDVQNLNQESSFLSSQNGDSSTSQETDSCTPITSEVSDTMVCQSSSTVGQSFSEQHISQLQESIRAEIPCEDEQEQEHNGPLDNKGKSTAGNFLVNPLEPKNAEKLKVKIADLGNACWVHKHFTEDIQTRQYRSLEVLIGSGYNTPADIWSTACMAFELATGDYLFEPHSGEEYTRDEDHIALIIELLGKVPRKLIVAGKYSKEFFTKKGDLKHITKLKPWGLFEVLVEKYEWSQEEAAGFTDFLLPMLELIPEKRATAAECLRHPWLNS

[5] = target: Serine/threonine-protein kinase 24 (Homo sapiens) (UniProt Q9Y6E0); assay: Selectivity interaction (Ambit KINOMEscan and KiNATiv profiling in Jurkat cells) EUB0000090b STK24; assay type: cell-based; settings: at 1 µM
Chain of Serine/threonine-protein kinase 24 (Homo sapiens) (Q9Y6E0 whole entry, looked up): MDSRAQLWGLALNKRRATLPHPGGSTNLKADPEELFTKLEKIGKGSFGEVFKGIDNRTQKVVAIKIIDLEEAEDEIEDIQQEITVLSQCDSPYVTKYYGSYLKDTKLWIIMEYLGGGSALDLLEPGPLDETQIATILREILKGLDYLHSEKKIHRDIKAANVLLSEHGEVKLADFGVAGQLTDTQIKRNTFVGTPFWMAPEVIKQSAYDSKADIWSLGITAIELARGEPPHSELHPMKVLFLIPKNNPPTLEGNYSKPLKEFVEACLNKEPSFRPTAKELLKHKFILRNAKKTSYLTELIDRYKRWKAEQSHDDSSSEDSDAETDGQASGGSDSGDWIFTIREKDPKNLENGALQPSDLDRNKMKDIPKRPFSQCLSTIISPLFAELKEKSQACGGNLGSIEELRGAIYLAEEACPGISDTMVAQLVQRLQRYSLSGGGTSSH

[6] = target: Serine/threonine-protein kinase 16 (Homo sapiens, UniProt O75716); assay: Selectivity interaction (ActivX KiNativ screen (ex vivo kinase selectivity in human PBMCs)) EUB0001619a STK16; assay type: cell-based; settings: PBMC, at 1 µM
Chain of Serine/threonine-protein kinase 16 (O75716 whole entry): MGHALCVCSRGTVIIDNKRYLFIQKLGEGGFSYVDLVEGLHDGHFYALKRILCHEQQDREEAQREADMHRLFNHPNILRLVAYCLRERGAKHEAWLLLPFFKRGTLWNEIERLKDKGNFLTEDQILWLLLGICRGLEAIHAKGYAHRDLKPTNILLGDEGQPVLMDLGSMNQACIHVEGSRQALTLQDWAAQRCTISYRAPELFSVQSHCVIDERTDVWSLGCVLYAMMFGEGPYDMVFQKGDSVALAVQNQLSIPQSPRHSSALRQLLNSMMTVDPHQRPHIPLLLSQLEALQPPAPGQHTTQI

[7] = target: T3, Protein kinase C epsilon type (Homo sapiens) (UniProt Q02156); assay: Selectivity interaction (Upstate Kinase Profiler service (Millipore)) EUB0000056c PRKCE; settings: at 1 µM
T3 sequence (whole entry): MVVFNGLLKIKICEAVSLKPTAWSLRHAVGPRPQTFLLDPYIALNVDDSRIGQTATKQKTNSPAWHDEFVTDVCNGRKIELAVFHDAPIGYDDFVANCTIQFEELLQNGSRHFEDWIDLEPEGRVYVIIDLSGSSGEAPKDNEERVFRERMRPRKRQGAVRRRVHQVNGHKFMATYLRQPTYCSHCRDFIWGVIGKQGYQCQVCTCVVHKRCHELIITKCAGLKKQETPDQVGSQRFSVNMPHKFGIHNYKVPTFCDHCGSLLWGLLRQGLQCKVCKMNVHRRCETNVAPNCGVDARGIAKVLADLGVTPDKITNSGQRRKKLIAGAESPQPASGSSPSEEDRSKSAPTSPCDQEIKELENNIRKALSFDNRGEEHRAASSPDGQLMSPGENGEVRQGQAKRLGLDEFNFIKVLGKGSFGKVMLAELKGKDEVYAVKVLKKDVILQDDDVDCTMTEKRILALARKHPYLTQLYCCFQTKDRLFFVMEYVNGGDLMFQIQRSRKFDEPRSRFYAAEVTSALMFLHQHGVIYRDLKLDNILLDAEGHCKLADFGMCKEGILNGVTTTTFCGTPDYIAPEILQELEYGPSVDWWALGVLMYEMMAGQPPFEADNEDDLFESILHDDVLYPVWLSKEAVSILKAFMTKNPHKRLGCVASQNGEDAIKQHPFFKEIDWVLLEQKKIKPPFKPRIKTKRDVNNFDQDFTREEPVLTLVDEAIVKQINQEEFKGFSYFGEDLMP

[8] = target: Mitogen-activated protein kinase 1 (Homo sapiens, UniProt P28482); assay: Selectivity interaction (Upstate Kinase Profiler service (Millipore)) EUB0000056c MAPK1; settings: at 1 µM
Chain of Mitogen-activated protein kinase 1 (P28482 whole entry): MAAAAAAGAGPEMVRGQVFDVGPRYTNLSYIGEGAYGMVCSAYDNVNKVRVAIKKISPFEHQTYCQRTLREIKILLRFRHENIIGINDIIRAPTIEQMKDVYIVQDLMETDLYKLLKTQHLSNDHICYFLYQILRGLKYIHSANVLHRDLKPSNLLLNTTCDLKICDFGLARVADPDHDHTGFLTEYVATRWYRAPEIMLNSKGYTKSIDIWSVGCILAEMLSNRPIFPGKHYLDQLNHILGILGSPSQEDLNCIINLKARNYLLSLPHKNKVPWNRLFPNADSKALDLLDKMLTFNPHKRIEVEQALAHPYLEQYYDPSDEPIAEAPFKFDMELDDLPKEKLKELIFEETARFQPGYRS

[9] = target: Macrophage colony-stimulating factor 1 receptor (Homo sapiens) (UniProt P07333); assay: Selectivity interaction (KinomeScan (DiscoverX)) EUB0000607a CSF1R; settings: at 10 µM

Chain of Macrophage colony-stimulating factor 1 receptor (Homo sapiens) (P07333 whole entry): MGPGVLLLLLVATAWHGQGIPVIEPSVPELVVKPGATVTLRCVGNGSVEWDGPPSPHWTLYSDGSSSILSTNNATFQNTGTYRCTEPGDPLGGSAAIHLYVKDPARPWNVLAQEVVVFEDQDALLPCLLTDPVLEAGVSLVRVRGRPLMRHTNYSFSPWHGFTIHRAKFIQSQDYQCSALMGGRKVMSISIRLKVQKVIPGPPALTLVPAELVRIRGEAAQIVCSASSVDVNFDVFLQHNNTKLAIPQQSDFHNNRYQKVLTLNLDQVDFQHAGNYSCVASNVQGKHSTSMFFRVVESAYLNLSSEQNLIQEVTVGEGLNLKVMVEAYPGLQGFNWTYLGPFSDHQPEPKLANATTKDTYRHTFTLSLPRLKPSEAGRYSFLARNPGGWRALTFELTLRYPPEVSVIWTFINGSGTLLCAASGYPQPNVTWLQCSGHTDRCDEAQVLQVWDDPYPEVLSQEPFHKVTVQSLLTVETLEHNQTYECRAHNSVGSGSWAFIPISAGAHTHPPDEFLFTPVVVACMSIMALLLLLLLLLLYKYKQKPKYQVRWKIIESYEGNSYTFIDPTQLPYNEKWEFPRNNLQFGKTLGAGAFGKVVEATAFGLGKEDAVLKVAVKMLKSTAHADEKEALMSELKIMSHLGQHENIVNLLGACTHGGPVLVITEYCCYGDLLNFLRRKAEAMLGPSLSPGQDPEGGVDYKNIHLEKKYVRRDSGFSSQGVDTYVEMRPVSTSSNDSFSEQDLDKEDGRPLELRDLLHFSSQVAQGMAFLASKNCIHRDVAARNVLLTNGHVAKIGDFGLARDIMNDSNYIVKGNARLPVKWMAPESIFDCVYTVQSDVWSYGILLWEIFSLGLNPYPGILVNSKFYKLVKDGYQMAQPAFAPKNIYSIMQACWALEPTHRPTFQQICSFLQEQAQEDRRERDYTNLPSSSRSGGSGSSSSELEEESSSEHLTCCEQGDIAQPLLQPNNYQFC

COc1cc(Nc2nc(C)cc(-c3cnn4nc(OC)ccc34)n2)cc(C(F)(F)F)c1
% of control [1]: 100%

Nc1cnc(N2CCc3cc(S(=O)(=O)Nc4c(F)cc(Cl)cc4F)cc(N4CCCC4=O)c32)nc1 [TP-020n]
% of control [2]: 96%

C=CC(=O)Nc1ccc(C(=O)Nc2[nH]nc3c2CN(C(=O)N[C@H](CN(C)C)c2ccccc2)C3(C)C)cc1
% of engagement [3]: 0.7%

CCC(=O)N1CC[C@H](Nc2ncnc3c2CN(c2cnc(OC)c(C(F)(F)F)c2)CC3)C1 [LENIOLISIB]
IC50 [4]: > 30 µM
IC50 (Glucocorticoid receptor): > 30 µM

CCC(=O)N1CCN(c2ccc(-n3c(=O)ccc4cnc5ccc(-c6cnc7ccccc7c6)cc5c43)cc2C(F)(F)F)CC1
% of control (SRSF protein kinase 1): 100%

CN(C)C/C=C/C(=O)Nc1ccc(C(=O)N2CCCC(Nc3ncc(Cl)c(-c4c[nH]c5ccccc45)n3)C2)cc1 (stereo unspecified)
% of control [5]: 94%

N#Cc1cccc(-c2c[nH]c3ncnc(N4CCOCC4)c23)c1
% of inhibition [6]: 63%

Cc1ccc(-c2ccc3c(ccc4sc5c(c43)NC[C@@H](C)NC5=O)n2)cn1
% of inhibition [7]: 8%
% of inhibition [8]: 1%

CNC(=O)Nc1ccc(-c2nc(N3CC4CCC(C3)O4)c3cnn(C4CCC5(CC4)OCCO5)c3n2)cc1
% of control [9]: 100%
